{"source": "patent US12083227B2", "about": "“Solid pharmaceutical formulations for treating endometriosis, uterine fibroids, polycystic ovary syndrome or adenomyosis” (priority 2017, dated 2024)", "key": {"[1]": {"experiment": "drug interaction studies: co-administered drug in the presence of elagolix", "quoted_text": "Drug interaction studies were performed with elagolix and other drugs that are likely to be co-administered and with drugs commonly used as probes for pharmacokinetic interactions."}, "[2]": {"experiment": "gel formation and pH of elagolix sodium solution", "assay_type": "physicochemical", "experimental": "1.23 gram of elagolix sodium was added to 2 mL purified water in a test tube. […] To facilitate continued dissolution, the solution was stirred and the gel was dispersed continuously using a spatula. The solution pH was measured with undissolved solid present using a calibrated pH meter."}, "[3]": {"conditions": "Ethinyl estradiol 35 mcg and triphasic norgestimate 0.18/0.215/0.25 mg once daily, elagolix 150 mg once daily, N 21"}, "[4]": {"conditions": "0.5 mg single dose, elagolix 200 mg twice daily × 10 days, N 11"}, "[5]": {"conditions": "2 mg single dose, elagolix 150 mg once daily × 13 days, N 11"}, "[6]": {"conditions": "2 mg single dose, elagolix 300 mg twice daily × 11 days, N 20"}, "[7]": {"conditions": "0.35 mg once daily × 112 days, elagolix 150 mg once daily × 56 days, N 32"}, "[8]": {"conditions": "20 mg once daily, elagolix 300 mg twice daily × 7 days, N 10"}}, "data": [{"smiles": "C#C[C@]1(O)CC[C@H]2[C@@H]3CCC4=CC(=NO)CC[C@@H]4[C@H]3CC[C@@]21CC", "note": "(mixture of isomers) [Norelgestromin]", "values": [{"measurement": "AUC Ratio (with elagolix vs. medication alone)", "setting": "[1]; [3]", "value": 0.85}, {"measurement": "Cmax Ratio (with elagolix vs. medication alone)", "setting": "[1]; [3]", "value": 0.87}]}, {"smiles": "C#CC1(O)CC[C@H]2[C@@H]3CCC4=CC(=O)CC[C@@H]4[C@H]3CC[C@@]21CC", "note": "(mixture of isomers) [Norgestrel]", "values": [{"measurement": "AUC Ratio (with elagolix vs. medication alone)", "setting": "[1]; [3]", "value": 0.92}, {"measurement": "Cmax Ratio (with elagolix vs. medication alone)", "setting": "[1]; [3]", "value": 0.89}]}, {"smiles": "C[C@H]1O[C@@H](O[C@H]2[C@@H](O)C[C@H](O[C@H]3[C@@H](O)C[C@H](O[C@H]4CC[C@@]5(C)[C@H](CC[C@@H]6[C@@H]5C[C@@H](O)[C@]5(C)[C@@H](C7=CC(=O)OC7)CC[C@]65O)C4)O[C@@H]3C)O[C@@H]2C)C[C@H](O)[C@@H]1O", "note": "[Digoxin]", "values": [{"measurement": "AUC Ratio (with elagolix vs. medication alone)", "setting": "[1]; [4]", "value": 1.26}, {"measurement": "Cmax Ratio (with elagolix vs. medication alone)", "setting": "[1]; [4]", "value": 1.71}]}, {"smiles": "C#C[C@]1(O)CC[C@H]2[C@@H]3CCc4cc(O)ccc4[C@H]3CC[C@@]21C", "note": "[Ethinyl Estradiol]", "values": [{"measurement": "AUC Ratio (with elagolix vs. medication alone)", "setting": "[1]; [3]", "value": 1.30}, {"measurement": "Cmax Ratio (with elagolix vs. medication alone)", "setting": "[1]; [3]", "value": 1.15}]}, {"smiles": "Cc1ncc2n1-c1ccc(Cl)cc1C(c1ccccc1F)=NC2", "note": "[Midazolam]", "values": [{"measurement": "AUC Ratio (with elagolix vs. medication alone)", "setting": "[1]; [5]", "value": 0.65}, {"measurement": "Cmax Ratio (with elagolix vs. medication alone)", "setting": "[1]; [5]", "value": 0.81}, {"measurement": "AUC Ratio (with elagolix vs. medication alone)", "setting": "[1]; [6]", "value": 0.46}, {"measurement": "Cmax Ratio (with elagolix vs. medication alone)", "setting": "[1]; [6]", "value": 0.56}]}, {"smiles": "C#C[C@]1(O)CC[C@H]2[C@@H]3CCC4=CC(=O)CC[C@@H]4[C@H]3CC[C@@]21C", "note": "[Norethindrone]", "values": [{"measurement": "AUC Ratio (with elagolix vs. medication alone)", "setting": "[1]; [7]", "value": 0.88}, {"measurement": "Cmax Ratio (with elagolix vs. medication alone)", "setting": "[1]; [7]", "value": 0.95}]}, {"smiles": "CC(C)c1nc(N(C)S(C)(=O)=O)nc(-c2ccc(F)cc2)c1/C=C/[C@@H](O)C[C@@H](O)CC(=O)O", "note": "[Rosuvastatin]", "values": [{"measurement": "AUC Ratio (with elagolix vs. medication alone)", "setting": "[1]; [8]", "value": 0.60}, {"measurement": "Cmax Ratio (with elagolix vs. medication alone)", "setting": "[1]; [8]", "value": 0.99}]}, {"smiles": "COc1cccc(-c2c(C)n(Cc3c(F)cccc3C(F)(F)F)c(=O)n(C[C@H](NCCCC(=O)[O-])c3ccccc3)c2=O)c1F.[Na+]", "note": "[elagolix sodium, sodium 4-((R)-2-[5-(2-fluoro-3-methoxy-phenyl)-3-(2-fluoro-6-trifluoromethyl-benzyl)-4-methyl-2,6-dioxo-3,6-dihydro-2H-pyrimidin-1-yl]-1-phenyl-ethylamino)butanoate]", "values": [{"measurement": "gel formation during dissolution", "setting": "[2]; 1.23 gram added to 2 mL purified water", "value": "started to form gel"}, {"measurement": "pH value of the solution", "setting": "[2]; 1.23 gram in 2 mL purified water, undissolved solid present, 20° C.", "value": 9.80}]}]}
